The assay deals with human DMS. Put plainly: In vivo assay: intracerebral injection of human DMS plus compound into rats, histology of DMS disruption site. Conditions: for Mean Volume Disrupted DMS: mean tissue volume of transformed redistributed disrupted DMS protein per individual DMS, rats, about 100,000 human DMS and compound at 10^−5M; for Persistence of Inflamm. Reaction: ratio of number of acute inflammatory cells (excluding macrophages) per DMS at the DMS disruption site; for Persistence of Inflamm. Reaction / Digestion and removal of DMS: compared to control (ii) normalized to 1.0, compound at 10^−5M; for Digestion and removal of DMS: ratio of number of macrophages containing DMS material per DMS at the DMS disruption site.

Bounds are passed on as bounds.

Take `CC(Cc1ccccc1)N1CCN(C(c2ccccc2)c2ccccc2)CC1` (racemic) [Compound 1, (±)-1-(1-Phenylisopropyl)-4-(diphenylmethyl)piperazine]: the “Mean Volume Disrupted DMS” value is 1250 μ^3; the “Persistence of Inflamm. Reaction” value is under 0.01; the “Digestion and removal of DMS” value is over 10.

With `Clc1ccc2c(c1)C(N1CCNCC1)=Nc1ccccc1O2` [Amoxepine], the “Mean Volume Disrupted DMS” value is on record as 1.36 × 10^5 μ^3; the “Persistence of Inflamm. Reaction” value is reported as 1.1; the “Digestion and removal of DMS” value is listed as 1.0.

As to `CN1[C@@H]2CC[C@H]1C[C@@H](OC(=O)C(CO)c1ccccc1)C2` (stereo partly drawn) [Atropine], the “Persistence of Inflamm. Reaction” value is 1.0; the “Digestion and removal of DMS” value is 1.0.

As to `CC(C)C[C@H]1C(=O)N2CCC[C@H]2[C@]2(O)O[C@](NC(=O)[C@@H]3C=C4c5cccc6[nH]c(Br)c(c56)C[C@H]4N(C)C3)(C(C)C)C(=O)N12` [Bromocriptine], the “Mean Volume Disrupted DMS” value is 1.04 × 10^5 μ^3; the “Persistence of Inflamm. Reaction” value is on record as 1.0; the “Digestion and removal of DMS” value was 1.0.

In the case of `c1ccc(C(OCCOC(c2ccccc2)c2ccccc2)c2ccccc2)cc1` [Compound 2, 1,2-Bis(diphenylmethoxy)ethane], the “Mean Volume Disrupted DMS” value turned out to be 560 μ^3; the “Persistence of Inflamm. Reaction” value is recorded as under 0.01; the “Digestion and removal of DMS” value is over 10.

With `Clc1ccc(C(OCCOC(c2ccccc2)c2ccc(Cl)cc2)c2ccccc2)cc1` (stereo not drawn) [Compound 4, 1,2-Bis(4chlorophenylphenylmethoxy)ethane], the “Mean Volume Disrupted DMS” value came out at 580 μ^3; the “Persistence of Inflamm. Reaction” value is recorded as under 0.01; the “Digestion and removal of DMS” value is listed as over 10.

On to `FC(F)(F)c1ccc(C(OCCOC(c2ccccc2)c2ccc(C(F)(F)F)cc2)c2ccccc2)cc1` (stereo not drawn) [Compound 5, 1,2-Bis(4-trifluoromethylphenylphenylmethoxy)ethane], for which the “Mean Volume Disrupted DMS” value was found to be 940 μ^3; the “Persistence of Inflamm. Reaction” value is recorded as under 0.01; the “Digestion and removal of DMS” value is reported as over 10.

Consider `Cc1ccccc1C(OCCOC(c1ccccc1)c1ccccc1C)c1ccccc1` (stereo not drawn) [Compound 6, 1,2-Bis(2-methylphenylphenylmethoxy)ethane], for which the “Mean Volume Disrupted DMS” value was determined as 940 μ^3; the “Persistence of Inflamm. Reaction” value was under 0.01; the “Digestion and removal of DMS” value is recorded as over 10.

On to `CN(CCC=C1c2ccccc2CCc2ccccc21)CCOC(c1ccccc1)c1ccccc1` [Compound 9, 3-(10,11-Dihydro-5H-dibenzo[a,d]cyclohepten-5-ylidene-N-methyl-N-[2-(diphenylmethoxy)ethyl)]-1-propaneamine], for which the “Mean Volume Disrupted DMS” value was 482 μ^3; the “Persistence of Inflamm. Reaction” value is under 0.01; the “Digestion and removal of DMS” value was over 10.

As to `CN(CCC=C1c2ccccc2CCc2ccccc21)CCOC(c1ccccc1)c1ccc(Cl)cc1` (stereo not drawn) [Compound 10, 3-(10,11-Dihydro-5H-dibenzo[a,d]cyclohepten-5-ylidene-N-methyl-N-[2-(4-chlorophenylphenylmethoxy)ethyl)]-1-propaneamine], the “Mean Volume Disrupted DMS” value is listed as 460 μ^3; the “Persistence of Inflamm. Reaction” value is under 0.01; the “Digestion and removal of DMS” value is over 10.

`COC(=O)C1=C(C)N(CCOC(c2ccccc2)c2ccccc2)C(C)=C(C(=O)OC)C1c1ccccc1` [Compound 11]: the “Mean Volume Disrupted DMS” value is on record as 1260 μ^3; the “Persistence of Inflamm. Reaction” value was under 0.01; the “Digestion and removal of DMS” value is over 10.

`CC(COc1ccc(/C(=C/c2ccccc2)c2ccccc2)cc1)N1CCN(C(c2ccccc2)c2ccccc2)CC1` (stereo not drawn) [Compound 12]: the “Mean Volume Disrupted DMS” value was determined as 740 μ^3; the “Persistence of Inflamm. Reaction” value is reported as under 0.01; the “Digestion and removal of DMS” value is recorded as over 10.

With `Cn1cnc2c1c(=O)n(CCOC(c1ccccc1)c1ccccc1)c(=O)n2C` [Compound 13], the “Mean Volume Disrupted DMS” value was found to be 1625 μ^3; the “Persistence of Inflamm. Reaction” value was under 0.01; the “Digestion and removal of DMS” value is reported as over 10.

In the case of `Cn1cnc2c1c(=O)n(CCOC(c1ccccc1)c1ccc(Cl)cc1)c(=O)n2C` (stereo not drawn) [Compound 14], the “Mean Volume Disrupted DMS” value stood at 1625 μ^3; the “Persistence of Inflamm. Reaction” value was under 0.01; the “Digestion and removal of DMS” value is given as over 10.

For the compound `CN1C(=O)CN=C(c2ccccc2)c2cc(Cl)ccc21` [Diazepam], the “Mean Volume Disrupted DMS” value was 6.5 × 10^4 μ^3; the “Persistence of Inflamm. Reaction” value is reported as 1.1; the “Digestion and removal of DMS” value is given as 1.0.

As for `CC[N+](C)(C)c1cccc(O)c1` [Edrophonium Chloride], the “Persistence of Inflamm. Reaction” value is 1.0; the “Digestion and removal of DMS” value was 1.0.

Take `C[C@@H](CO)NC(=O)[C@@H]1C=C2c3cccc4[nH]cc(c34)C[C@H]2N(C)C1` [Ergonovine]: the “Mean Volume Disrupted DMS” value is 5.2 × 10^4 μ^3; the “Persistence of Inflamm. Reaction” value is given as 1.0; the “Digestion and removal of DMS” value was found to be 1.0.

On to `CN1C[C@H](C(=O)N[C@]2(C)O[C@@]3(O)[C@@H]4CCCN4C(=O)[C@H](Cc4ccccc4)N3C2=O)C=C2c3cccc4[nH]cc(c34)C[C@H]21` [Ergotamine], for which the “Mean Volume Disrupted DMS” value was 5.8 × 10^4 μ^3; the “Persistence of Inflamm. Reaction” value was 1.0; the “Digestion and removal of DMS” value was 1.0.

As to `CN(C)CCCN1c2ccccc2CCc2ccccc21` [Imipramine], the “Mean Volume Disrupted DMS” value is reported as 1.38 × 10^5 μ^3; the “Persistence of Inflamm. Reaction” value was 1.0; the “Digestion and removal of DMS” value is recorded as 1.0.

With `O=C1Nc2ccc(Cl)cc2C(c2ccccc2Cl)=NC1O` (stereo not drawn) [Lorazepam], the “Mean Volume Disrupted DMS” value was 8.2 × 10^4 μ^3; the “Persistence of Inflamm. Reaction” value was 1.1; the “Digestion and removal of DMS” value is reported as 1.0.

Take `CCOC(=O)C1(c2ccccc2)CCN(C)CC1` [Meperidine]: the “Mean Volume Disrupted DMS” value is 2.1 × 10^5 μ^3; the “Persistence of Inflamm. Reaction” value worked out at 1.0; the “Digestion and removal of DMS” value was 1.0.

Regarding `COC(=O)C(c1ccccc1)C1CCCCN1` (stereo not drawn) [Methylphenidate], the “Mean Volume Disrupted DMS” value is recorded as 5.8 × 10^4 μ^3; the “Persistence of Inflamm. Reaction” value came to 1.1; the “Digestion and removal of DMS” value turned out to be 1.01.

In the case of `CN(C)C(=O)Oc1cccc([N+](C)(C)C)c1` [Neostigmine], the “Mean Volume Disrupted DMS” value was 1.4 × 10^5 μ^3; the “Persistence of Inflamm. Reaction” value is on record as 1.1; the “Digestion and removal of DMS” value turned out to be 1.0.

Regarding `O=C1Nc2ccc(Cl)cc2C(c2ccccc2)=NC1O` (stereo not drawn) [Oxazepam], the “Mean Volume Disrupted DMS” value is listed as 6.8 × 10^4 μ^3; the “Persistence of Inflamm. Reaction” value came to 1.1; the “Digestion and removal of DMS” value was found to be 1.0.

On to `CCCN1C[C@H](CSC)C[C@@H]2c3cccc4[nH]cc(c34)C[C@H]21` [Pergolide], for which the “Mean Volume Disrupted DMS” value was 1.2 × 10^5 μ^3; the “Persistence of Inflamm. Reaction” value was 1.1; the “Digestion and removal of DMS” value is on record as 1.0.

For the compound `CNC(=O)Oc1ccc2c(c1)[C@]1(C)CCN(C)[C@@H]1N2C` [Physostigmine], the “Mean Volume Disrupted DMS” value is on record as 1.1 × 10^5 μ^3; the “Persistence of Inflamm. Reaction” value was 1.0; the “Digestion and removal of DMS” value is on record as 1.0.

With `CC[C@@H]1C(=O)OC[C@@H]1Cc1cncn1C` [Pilocarpine], the “Mean Volume Disrupted DMS” value is listed as 1.7 × 10^5 μ^3; the “Persistence of Inflamm. Reaction” value was 1.1; the “Digestion and removal of DMS” value is given as 1.0.

`CN(C)C(=O)Oc1ccc[n+](C)c1` [Pyridostigmine bromide]: the “Persistence of Inflamm. Reaction” value is listed as 1.1; the “Digestion and removal of DMS” value is 1.0.

Turning to `C#CCN(C)[C@H](C)Cc1ccccc1` [Selegiline], the “Mean Volume Disrupted DMS” value is 1.3 × 10^5 μ^3; the “Persistence of Inflamm. Reaction” value is listed as 1.0; the “Digestion and removal of DMS” value is 1.0.

For the compound `Nc1c2c(nc3ccccc13)CCCC2` [Tacrine], the “Mean Volume Disrupted DMS” value is listed as 1.4 × 10^5 μ^3; the “Persistence of Inflamm. Reaction” value is listed as 1.1; the “Digestion and removal of DMS” value was 1.0.

The values are drawn from patent US6518314B1, “Pharmaceutical agents that impede the initiation and progression of primary and secondary DMS disruptions” (Nymox Corporation, priority 1997, dated 2003).
